{"source": "patent US5068247A", "about": "“2-aminopentanoic acid compounds and their use as immunosuppressants” (priority 1989, dated 1991)", "key": {"[1]": {"tested_on": "mouse allogenic MLR (BALB/c mouse spleen cells stimulated with C57BL/6 mouse spleen cells)", "assay": "mouse allogenic mixed lymphocyte reaction (MLR), 3H-thymidine uptake", "format": "cell-based", "how_it_was_run": "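BALB/c responder spleen cells were mixed in equal amounts with mitomycin C-treated (40 μg/ml, 60 min, 37 °C) C57BL/6 stimulator spleen cells, each at 10^7 cells/ml in RPMI1640 with 20% FCS and 10^-4 M 2-mercaptoethanol. Blastogenesis was read as 3H-thymidine uptake (18.5 KBq/well, 4 h) after culture and expressed as % suppression. Compounds were dissolved in methanol, then diluted in medium.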"}, "[2]": {"tested_on": "IL-2 production in mouse allogenic MLC", "assay": "suppression of IL-2 production in mouse allogenic MLC", "format": "cell-based", "experimental": "Mouse allogenic MLC was carried out as follows:\nAfter termination of culture, the supernatant was collected and used as the supernatant of mouse allogenic MLC.\nThe IL-2 and IL-3 activities in the supernatant of mouse allogenic MLC were assayed in the same way as in Experiment Example 4."}, "U937": {"tested_on": "U937", "assay": "cytotoxicity to cultured tumor cell line U937", "format": "cell-based, human", "protocol": "Cytotoxicity to various human tumor cell lines was examined as follows:\nCells of human cell lines, K562, MOLT4, U937 and HL60 were respectively suspended to the concentration of 4×10^5 cells/ml in the RPMI1640 culture medium supplemented with 20% FCS. Fifty μl of each suspension was added to each well of a 96-well microtest plate to which 50 μl of the test solution had been added. After culturing the suspension at 37° C. in an atmosphere of 5% carbon dioxide for 72 hours, the absorbancy at 570 nm was measured in the same way as with the colorimetry using MTT in Experiment Example 1, and the percent suppression was calculated by the following formula, which was used as an index of cytotoxicity."}, "[3]": {"assay": "cytotoxicity to cultured tumor cell line U937", "format": "cell-based, human", "details": "human, u937 cells; 0.1 μg/ml; read-out: Suppression"}, "[4]": {"tested_on": "allo-specific cytotoxic antibody in serum of EL4-immunized BALB/c mice", "assay": "suppression of allo-specific cytotoxic antibody production induced by allogenic cell immunization of mouse", "format": "in vivo", "experimental": "Male 5- to 7-week-old BALB/c mice were immunized with leukemia cell EL4 derived from C57BL/6 mice (10^7 cells/mouse, intraperitoneal administration) in the same way as in Experiment Example 9, and the […] Nine to ten days after immunization, a serum was collected from the mice. Fifty μl of the two-fold serial dilution of the serum, 50 μl of a guinea pig complement and EL4 cell suspension labelled with ^51 Cr as the target cell (5×10^4 cells/ml, 100 μl) were together added to a 96-well microtest plate. After incubation at 37° C. for 1 hour, the amount of ^51 Cr released in the supernatant was measured, and the complement-dependent cytotoxicity was calculated by the following formula. [formula]\nThe value of allo-specific cytotoxic antibody determined as above was expressed by the titer calculated on the basis of the concentration at which the releasing amount of ^51 Cr was 50% of that of ^51 Cr-labelled target cells treated with 0.1 N HCl."}, "[5]": {"details": "0.003 mg/kg/day po × 10, Table 10D"}, "[6]": {"details": "0.01 mg/kg/day po × 5, Table 10C"}, "[7]": {"details": "0.01 mg/kg/day po × 10, Table 10D"}, "[8]": {"details": "0.03 mg/kg/day po × 5, Table 10C"}, "[9]": {"details": "0.03 mg/kg/day po × 10, Table 10D"}, "[10]": {"details": "0.1 mg/kg/day po × 5, Table 10C"}, "[11]": {"details": "0.1 mg/kg/day po × 10, Table 10D"}, "[12]": {"details": "0.3 mg/kg/day po × 5, Table 10C"}, "[13]": {"details": "0.3 mg/kg/day po × 10, Table 10D"}}, "note": "Where two headings read alike, the source gives them in different places.", "data": [{"smiles": "CCCCCCCCCCCCC/C=C/C[C@@H](O)[C@H](O)[C@@](N)(CO)C(=O)O", "note": "[Example 5]", "values": [{"measurement": "3H-thymidine uptake", "setting": "[1]; 0.0001 μg/ml, Table 1A", "result": 15747, "unit": "cpm"}, {"measurement": "3H-thymidine uptake", "setting": "[1]; 0.0001 μg/ml, Table 1B", "result": "4485 ± 812", "unit": "cpm"}, {"measurement": "Suppression", "setting": "[1]; 0.0001 μg/ml, Table 1B", "result": 18.1, "unit": "%"}, {"measurement": "3H-thymidine uptake", "setting": "[1]; 0.001 μg/ml, Table 1A", "result": 2384, "unit": "cpm"}, {"measurement": "3H-thymidine uptake", "setting": "[1]; 0.001 μg/ml, Table 1B", "result": "6101 ± 356", "unit": "cpm"}, {"measurement": "Suppression", "setting": "[1]; 0.001 μg/ml, Table 1B", "result": 0, "unit": "%"}, {"measurement": "3H-thymidine uptake", "setting": "[1]; 0.01 μg/ml, Table 1A", "result": 1421, "unit": "cpm"}, {"measurement": "3H-thymidine uptake", "setting": "[1]; 0.01 μg/ml, Table 1B", "result": "1013 ± 314", "unit": "cpm"}, {"measurement": "3H-thymidine uptake", "setting": "[1]; 0.1 μg/ml, Table 1A", "result": 1091, "unit": "cpm"}, {"measurement": "3H-thymidine uptake", "setting": "[1]; 0.1 μg/ml, Table 1B", "result": "359 ± 54", "unit": "cpm"}, {"measurement": "3H-thymidine uptake", "setting": "[1]; 1 μg/ml, Table 1A", "result": 1163, "unit": "cpm"}, {"measurement": "3H-thymidine uptake", "setting": "[1]; 1 μg/ml, Table 1B", "result": "52 ± 24", "unit": "cpm"}, {"measurement": "inhibition at 0.0001 µg/mL", "setting": "[1]; Mus musculus, Lymphocyte, 0.0001 μg/ml, Table 1A, read-out: Suppression", "result": 16, "unit": "%"}, {"measurement": "inhibition at 0.001 µg/mL", "setting": "[1]; Mus musculus, Lymphocyte, 0.001 μg/ml, Table 1A, read-out: Suppression", "result": 95.5, "unit": "%"}, {"measurement": "inhibition at 0.01 µg/mL", "setting": "[1]; Mus musculus, Lymphocyte, 0.01 μg/ml, Table 1A, read-out: Suppression", "result": 100, "unit": "%"}, {"measurement": "inhibition at 0.01 µg/mL", "setting": "[1]; Mus musculus, Lymphocyte, 0.01 μg/ml, Table 1B, read-out: Suppression", "result": 92.2, "unit": "%"}, {"measurement": "inhibition at 0.1 µg/mL", "setting": "[1]; Mus musculus, Lymphocyte, 0.1 μg/ml, Table 1A, read-out: Suppression", "result": 100, "unit": "%"}, {"measurement": "inhibition at 0.1 µg/mL", "setting": "[1]; Mus musculus, Lymphocyte, 0.1 μg/ml, Table 1B, read-out: Suppression", "result": 100, "unit": "%"}, {"measurement": "inhibition at 1 µg/mL", "setting": "[1]; Mus musculus, Lymphocyte, 1 μg/ml, Table 1A, read-out: Suppression", "result": 100, "unit": "%"}, {"measurement": "inhibition at 1 µg/mL", "setting": "[1]; Mus musculus, Lymphocyte, 1 μg/ml, Table 1B, read-out: Suppression", "result": 100, "unit": "%"}, {"measurement": "IC50", "setting": "[1]; Mus musculus, Lymphocyte, read-out: 50%-inhibition concentration (IC50) in mouse allogenic MLR", "result": 0.25, "unit": "ng/mL"}, {"measurement": "IL-2 activity", "setting": "[2]; 0.0001 μg/ml", "result": 3.2, "unit": "U/ml"}, {"measurement": "IL-2 activity", "setting": "[2]; 0.001 μg/ml", "result": 2.9, "unit": "U/ml"}, {"measurement": "IL-2 activity", "setting": "[2]; 0.01 μg/ml", "result": "< 1.0", "unit": "U/ml"}, {"measurement": "IL-2 activity", "setting": "[2]; 0.1 μg/ml", "result": "< 1.0", "unit": "U/ml"}, {"measurement": "IL-2 activity", "setting": "[2]; 1 μg/ml", "result": "< 1.0", "unit": "U/ml"}, {"measurement": "inhibition at 0.0001 µg/mL", "setting": "[2]; Mus musculus, 48 h, 0.0001 μg/ml", "result": 28.9, "unit": "%"}, {"measurement": "inhibition at 0.001 µg/mL", "setting": "[2]; Mus musculus, 48 h, 0.001 μg/ml", "result": 35.6, "unit": "%"}, {"measurement": "inhibition at 0.01 µg/mL", "setting": "[2]; Mus musculus, 48 h, 0.01 μg/ml", "result": 100, "unit": "%"}, {"measurement": "inhibition at 0.1 µg/mL", "setting": "[2]; Mus musculus, 48 h, 0.1 μg/ml", "result": 100, "unit": "%"}, {"measurement": "inhibition at 1 µg/mL", "setting": "[2]; Mus musculus, 48 h, 1 μg/ml", "result": 100, "unit": "%"}, {"measurement": "Absorbancy", "setting": "U937; 0.1 μg/ml", "result": "0.695 ± 0.032"}, {"measurement": "Absorbancy", "setting": "U937; 1 μg/ml", "result": "0.699 ± 0.044"}, {"measurement": "Absorbancy", "setting": "U937; 10 μg/ml", "result": "0.684 ± 0.038"}, {"measurement": "cytotoxicity at 72 h", "setting": "[3]", "result": 0, "unit": "%"}, {"measurement": "Allogenic cell-specific antibody in serum, suppression", "setting": "[4]; [5]", "result": 28.3, "unit": "%"}, {"measurement": "Allogenic cell-specific antibody in serum, titer", "setting": "[4]; [5]", "result": "147 ± 43"}, {"measurement": "Allogenic cell-specific antibody in serum, suppression", "setting": "[4]; [6]", "result": 0, "unit": "%"}, {"measurement": "Allogenic cell-specific antibody in serum, titer", "setting": "[4]; [6]", "result": "318 ± 75"}, {"measurement": "Allogenic cell-specific antibody in serum, suppression", "setting": "[4]; [7]", "result": 45.4, "unit": "%"}, {"measurement": "Allogenic cell-specific antibody in serum, titer", "setting": "[4]; [7]", "result": "112 ± 66"}, {"measurement": "Allogenic cell-specific antibody in serum, suppression", "setting": "[4]; [8]", "result": 37.8, "unit": "%"}, {"measurement": "Allogenic cell-specific antibody in serum, titer", "setting": "[4]; [8]", "result": "186 ± 100"}, {"measurement": "Allogenic cell-specific antibody in serum, suppression", "setting": "[4]; [9]", "result": 40.0, "unit": "%"}, {"measurement": "Allogenic cell-specific antibody in serum, titer", "setting": "[4]; [9]", "result": "123 ± 43"}, {"measurement": "Allogenic cell-specific antibody in serum, suppression", "setting": "[4]; [10]", "result": 61.5, "unit": "%"}, {"measurement": "Allogenic cell-specific antibody in serum, titer", "setting": "[4]; [10]", "result": "115 ± 19"}, {"measurement": "Allogenic cell-specific antibody in serum, suppression", "setting": "[4]; [11]", "result": 71.2, "unit": "%"}, {"measurement": "Allogenic cell-specific antibody in serum, titer", "setting": "[4]; [11]", "result": "59 ± 38"}, {"measurement": "Allogenic cell-specific antibody in serum, suppression", "setting": "[4]; [12]", "result": 69.6, "unit": "%"}, {"measurement": "Allogenic cell-specific antibody in serum, titer", "setting": "[4]; [12]", "result": "91 ± 67"}, {"measurement": "Allogenic cell-specific antibody in serum, suppression", "setting": "[4]; [13]", "result": 76.1, "unit": "%"}, {"measurement": "Allogenic cell-specific antibody in serum, titer", "setting": "[4]; [13]", "result": "49 ± 26"}, {"measurement": "Allogenic cell-specific antibody in serum, suppression", "setting": "[4]; 1 mg/kg/day po × 5, Table 10C", "result": 82.5, "unit": "%"}, {"measurement": "Allogenic cell-specific antibody in serum, titer", "setting": "[4]; 1 mg/kg/day po × 5, Table 10C", "result": "52 ± 27"}, {"measurement": "Allogenic cell-specific antibody in serum, suppression", "setting": "[4]; 1 mg/kg/day po × 10, Table 10D", "result": 76.6, "unit": "%"}, {"measurement": "Allogenic cell-specific antibody in serum, titer", "setting": "[4]; 1 mg/kg/day po × 10, Table 10D", "result": "48 ± 37"}, {"measurement": "allo-specific cytotoxic antibody production in serum (in words)", "setting": "[4]; intraperitoneal or oral, Tables 10A to 10D", "result": "strongly suppresses allo-specific cytotoxic antibody production in serum"}]}]}
